Source: US8765677B2 (priority 2009, dated 2014)
pIC50: −log10 of the molar value. Entries after “also recorded” stand apart in the source; their conditions may differ. Where a SMILES comes first, the peptide text is derived from it.

What was measured:
N-type VGCCs = N-type VGCCs (Rattus norvegicus, UniProt Q02294); experiment: biochemical; type: binding
[1] = tested on: native VGCCs in DRG sensory neurons; type: cell-based, rat; details: for maximum inhibition of inward Ba2+ current: 0.1 µM
[2] = tested on: low-voltage-activated T-type VGCC in DRG neurons; type: cell-based, rat
[3] = tested on: excitatory synaptic transmission between primary afferents and dorsal horn superficial lamina neurons; type: cell-based, rat
[4] = tested on: nerve injury model of neuropathic pain; details: rat, in vivo
[5] = tested on: mice with CFA-induced mechanical allodynia; details: mouse, in vivo, sc
Sprague-Dawley rats = details: rat, in vivo
[6] = molecular target: recombinant N-type (Cav2.2) VGCCs α1B-b/α2δ1/β3 (Rattus norvegicus, UniProt Q02294); experiment: cell-based; type: cell-based
[7] = molecular target: recombinant N-type (Cav2.2) VGCCs α1B-b/α2δ1/β2a (Rattus norvegicus, UniProt Q02294); type: cell-based
[8] = molecular target: recombinant Cav1.2 α1C (L-type) channels (α/α2δ1/β3) (Oryctolagus cuniculus, UniProt P15381); type: cell-based, rabbit
[9] = molecular target: recombinant Cav1.3 α1D (L-type) channels (α/α2δ1/β3) (Rattus norvegicus, UniProt P27732); type: cell-based
[10] = molecular target: recombinant Cav2.3 α1E (R-type) channels (α/α2δ1/β3) (Rattus norvegicus, UniProt Q07652); type: cell-based
[11] = molecular target: recombinant Cav2.1 α1A (P/Q-type) channels (α/α2δ1/β3) (Oryctolagus cuniculus, UniProt P27884); experiment: cell-based; set-up: species or system rabbit

N-type VGCCs, sequence (Q02294 whole entry, looked up): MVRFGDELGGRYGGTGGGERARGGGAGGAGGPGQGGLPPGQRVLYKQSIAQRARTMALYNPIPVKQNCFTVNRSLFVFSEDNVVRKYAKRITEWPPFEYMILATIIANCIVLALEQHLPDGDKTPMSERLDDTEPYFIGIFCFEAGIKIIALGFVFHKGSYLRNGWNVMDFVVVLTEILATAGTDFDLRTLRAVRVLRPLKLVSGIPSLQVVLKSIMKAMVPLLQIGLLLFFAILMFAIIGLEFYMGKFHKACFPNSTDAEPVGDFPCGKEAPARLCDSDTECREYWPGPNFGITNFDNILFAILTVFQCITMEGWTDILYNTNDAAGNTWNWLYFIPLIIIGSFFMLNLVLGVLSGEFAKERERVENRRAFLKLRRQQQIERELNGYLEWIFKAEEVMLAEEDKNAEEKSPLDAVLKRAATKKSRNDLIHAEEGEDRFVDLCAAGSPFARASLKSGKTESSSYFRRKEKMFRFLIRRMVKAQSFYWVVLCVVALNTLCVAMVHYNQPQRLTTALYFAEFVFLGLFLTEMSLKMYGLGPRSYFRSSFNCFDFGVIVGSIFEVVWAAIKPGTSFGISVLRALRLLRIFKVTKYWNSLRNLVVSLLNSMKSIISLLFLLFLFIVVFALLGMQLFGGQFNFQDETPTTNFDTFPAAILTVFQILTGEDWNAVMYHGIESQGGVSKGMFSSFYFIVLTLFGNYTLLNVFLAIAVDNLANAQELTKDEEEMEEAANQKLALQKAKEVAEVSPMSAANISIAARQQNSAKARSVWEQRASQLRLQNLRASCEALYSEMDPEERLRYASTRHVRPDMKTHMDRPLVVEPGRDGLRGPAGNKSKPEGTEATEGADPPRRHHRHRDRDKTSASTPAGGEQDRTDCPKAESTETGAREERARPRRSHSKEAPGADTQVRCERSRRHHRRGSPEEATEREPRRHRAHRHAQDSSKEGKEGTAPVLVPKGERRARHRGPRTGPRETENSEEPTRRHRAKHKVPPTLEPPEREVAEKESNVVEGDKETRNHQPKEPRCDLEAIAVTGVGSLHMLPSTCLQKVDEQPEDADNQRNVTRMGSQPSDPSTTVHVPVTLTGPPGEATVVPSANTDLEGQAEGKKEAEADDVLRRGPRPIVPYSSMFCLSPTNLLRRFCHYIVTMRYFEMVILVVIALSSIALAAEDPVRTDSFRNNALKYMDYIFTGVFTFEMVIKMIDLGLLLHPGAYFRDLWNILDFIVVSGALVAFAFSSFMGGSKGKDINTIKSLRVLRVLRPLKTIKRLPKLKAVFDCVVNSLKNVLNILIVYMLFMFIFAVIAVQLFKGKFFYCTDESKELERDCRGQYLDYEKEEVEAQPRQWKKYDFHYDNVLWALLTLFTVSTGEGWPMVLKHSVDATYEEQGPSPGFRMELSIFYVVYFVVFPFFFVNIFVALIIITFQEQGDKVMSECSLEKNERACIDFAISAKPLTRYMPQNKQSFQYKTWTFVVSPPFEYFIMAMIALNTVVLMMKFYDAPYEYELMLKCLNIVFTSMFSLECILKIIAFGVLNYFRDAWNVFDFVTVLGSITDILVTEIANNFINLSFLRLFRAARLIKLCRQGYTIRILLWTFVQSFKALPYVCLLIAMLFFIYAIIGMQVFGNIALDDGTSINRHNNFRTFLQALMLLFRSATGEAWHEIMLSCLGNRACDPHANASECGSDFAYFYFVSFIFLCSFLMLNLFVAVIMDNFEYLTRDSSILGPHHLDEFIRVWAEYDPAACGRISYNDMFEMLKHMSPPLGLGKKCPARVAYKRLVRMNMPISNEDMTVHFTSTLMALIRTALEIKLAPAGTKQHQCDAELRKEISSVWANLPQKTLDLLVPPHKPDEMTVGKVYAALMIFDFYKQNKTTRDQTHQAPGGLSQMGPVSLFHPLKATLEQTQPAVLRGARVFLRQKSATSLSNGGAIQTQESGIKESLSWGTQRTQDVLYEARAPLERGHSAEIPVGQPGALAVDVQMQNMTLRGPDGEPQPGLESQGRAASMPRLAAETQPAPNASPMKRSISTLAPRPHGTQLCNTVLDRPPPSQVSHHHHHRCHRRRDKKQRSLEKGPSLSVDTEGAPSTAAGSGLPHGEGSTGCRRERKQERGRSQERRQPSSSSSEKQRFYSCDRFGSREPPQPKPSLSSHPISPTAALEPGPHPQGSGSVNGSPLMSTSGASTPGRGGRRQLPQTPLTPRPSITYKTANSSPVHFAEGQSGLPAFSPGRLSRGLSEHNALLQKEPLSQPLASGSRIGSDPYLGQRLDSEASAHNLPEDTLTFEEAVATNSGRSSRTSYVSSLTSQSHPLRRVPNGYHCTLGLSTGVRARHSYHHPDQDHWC
recombinant Cav1.3 α1D (L-type) channels (α/α2δ1/β3), sequence (P27732 whole entry, looked up): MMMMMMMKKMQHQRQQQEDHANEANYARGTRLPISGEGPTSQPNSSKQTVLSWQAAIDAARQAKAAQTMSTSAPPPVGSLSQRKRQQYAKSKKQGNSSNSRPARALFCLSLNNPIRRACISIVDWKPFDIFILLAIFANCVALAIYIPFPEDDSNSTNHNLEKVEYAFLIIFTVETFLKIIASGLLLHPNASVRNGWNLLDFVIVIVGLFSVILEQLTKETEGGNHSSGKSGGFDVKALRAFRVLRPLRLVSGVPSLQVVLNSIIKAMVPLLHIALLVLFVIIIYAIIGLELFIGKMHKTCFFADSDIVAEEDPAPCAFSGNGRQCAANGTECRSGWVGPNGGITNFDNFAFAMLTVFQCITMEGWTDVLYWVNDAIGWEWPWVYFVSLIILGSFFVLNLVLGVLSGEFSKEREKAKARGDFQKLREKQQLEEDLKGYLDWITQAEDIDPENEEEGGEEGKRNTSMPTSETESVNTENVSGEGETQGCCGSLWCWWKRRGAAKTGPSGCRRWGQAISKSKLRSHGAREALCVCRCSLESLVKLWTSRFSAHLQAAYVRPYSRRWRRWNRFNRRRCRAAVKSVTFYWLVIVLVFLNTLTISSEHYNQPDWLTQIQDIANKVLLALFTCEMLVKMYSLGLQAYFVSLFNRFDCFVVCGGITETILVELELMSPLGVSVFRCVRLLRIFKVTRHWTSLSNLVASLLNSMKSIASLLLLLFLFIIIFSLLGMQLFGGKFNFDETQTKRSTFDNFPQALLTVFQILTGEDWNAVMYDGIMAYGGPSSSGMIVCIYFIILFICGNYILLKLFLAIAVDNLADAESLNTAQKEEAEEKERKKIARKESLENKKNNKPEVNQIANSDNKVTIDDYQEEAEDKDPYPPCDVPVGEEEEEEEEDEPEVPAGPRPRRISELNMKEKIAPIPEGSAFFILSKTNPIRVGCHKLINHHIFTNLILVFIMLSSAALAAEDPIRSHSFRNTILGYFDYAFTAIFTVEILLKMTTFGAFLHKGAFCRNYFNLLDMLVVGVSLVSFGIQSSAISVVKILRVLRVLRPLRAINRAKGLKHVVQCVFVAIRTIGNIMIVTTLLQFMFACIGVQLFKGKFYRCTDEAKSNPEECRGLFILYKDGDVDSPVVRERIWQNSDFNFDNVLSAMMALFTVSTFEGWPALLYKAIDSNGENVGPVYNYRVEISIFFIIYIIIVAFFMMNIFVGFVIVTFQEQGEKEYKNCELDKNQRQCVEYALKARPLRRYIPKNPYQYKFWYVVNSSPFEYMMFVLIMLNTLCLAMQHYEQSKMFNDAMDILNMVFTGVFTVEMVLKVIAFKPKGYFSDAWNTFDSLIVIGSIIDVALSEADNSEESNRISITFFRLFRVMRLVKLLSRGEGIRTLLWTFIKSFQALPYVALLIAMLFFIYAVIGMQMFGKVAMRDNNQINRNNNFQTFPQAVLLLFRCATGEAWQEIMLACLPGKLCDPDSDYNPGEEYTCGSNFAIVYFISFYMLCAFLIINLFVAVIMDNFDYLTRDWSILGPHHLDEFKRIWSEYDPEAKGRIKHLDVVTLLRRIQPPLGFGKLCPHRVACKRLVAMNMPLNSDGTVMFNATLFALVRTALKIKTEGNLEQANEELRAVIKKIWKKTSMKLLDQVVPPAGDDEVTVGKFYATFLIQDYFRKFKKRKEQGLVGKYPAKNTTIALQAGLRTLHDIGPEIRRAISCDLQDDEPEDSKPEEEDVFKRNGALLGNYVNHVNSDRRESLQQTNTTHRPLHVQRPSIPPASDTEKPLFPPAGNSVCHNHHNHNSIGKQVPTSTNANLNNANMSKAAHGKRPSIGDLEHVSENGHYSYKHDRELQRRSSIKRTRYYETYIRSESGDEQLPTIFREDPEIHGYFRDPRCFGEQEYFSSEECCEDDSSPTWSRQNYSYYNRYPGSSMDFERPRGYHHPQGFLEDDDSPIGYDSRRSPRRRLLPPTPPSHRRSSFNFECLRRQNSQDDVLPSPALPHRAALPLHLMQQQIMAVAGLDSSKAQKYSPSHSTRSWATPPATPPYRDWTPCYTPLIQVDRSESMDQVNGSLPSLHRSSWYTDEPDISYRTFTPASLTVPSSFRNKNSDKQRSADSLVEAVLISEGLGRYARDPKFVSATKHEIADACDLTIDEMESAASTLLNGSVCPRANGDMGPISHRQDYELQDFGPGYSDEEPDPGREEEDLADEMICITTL
recombinant N-type (Cav2.2) VGCCs α1B-b/α2δ1/β3, sequence (Q02294 whole entry, looked up): as the sequence (Q02294 whole entry, looked up) above
recombinant N-type (Cav2.2) VGCCs α1B-b/α2δ1/β2a, sequence (Q02294 whole entry, looked up): as above

SMILES	displacement of 125I-GVIA binding (N-type VGCCs)	effect on P/Q- and L-type VGCC current components [1]	maximum inhibition of inward Ba2+ current [1] [%]	effect on T-type current [2]	EPSC amplitude recovered after washout [3]	reduction of evoked monosynaptic EPSC amplitude [3] [%]	relief of mechanical allodynia [4]	reversal of incapacitance [5]	side effects (shakes, tail twitching, serpentine tail movements) (Sprague-Dawley rats)	Hill slope [6]	Hill slope [7]	effect on Cav1.2 channels [8]	effect on Cav1.3 channels [9]	effect on Cav2.3 channels [10]	effect on Cav2.1 channels [11]	pIC50 (N-type VGCCs; affinity)	pIC50 (N-type VGCCs; pIC50)
CC(C)C[C@@H]1NC(=O)[C@H](CCCNC(=N)N)NC(=O)[C@@H]2CSSC[C@@H]3NC(=O)[C@H](CO)NC(=O)[C@H](C)NC(=O)CNC(=O)[C@H](CCCCN)NC(=O)CNC(=O)[C@H](CCCCN)NC(=O)[C@@H](N)CSSC[C@H](NC(=O)[C@H](CSSC[C@@H](C(N)=O)NC(=O)[C@H](CCCNC(=N)N)NC(=O)CNC1=O)NC(=O)[C@H](CC(=O)O)NC(=O)[C@H](Cc1ccc(O)cc1)NC(=O)[C@H](CO)NC(=O)[C@H]([C@@H](C)O)NC(=O)[C@H](CCCNC(=N)N)NC(=O)[C@H](CCCNC(=N)N)NC3=O)C(=O)N[C@@H]([C@@H](C)O)C(=O)NCC(=O)N[C@@H](CO)C(=O)N2 [CVIF] (HELM PEPTIDE1{C.K.G.K.G.A.S.C.R.R.T.S.Y.D.C.C.T.G.S.C.R.L.G.R.C.[am]}$PEPTIDE1,PEPTIDE1,1:R3-16:R3|PEPTIDE1,PEPTIDE1,8:R3-20:R3|PEPTIDE1,PEPTIDE1,15:R3-25:R3$$$V2.0)	fully displaced	does not affect	~50	not affected	73±10 % of control	61±7	completely relieves mechanical allodynia; also recorded: relieved mechanical allodynia	significant reversal of incapacitance; also recorded: subsided	substantially decreased side effects compared to CVID	–	–	–	–	–	–	–	–
CC(C)C[C@@H]1NC(=O)[C@H](CCCNC(=N)N)NC(=O)[C@@H]2CSSC[C@@H]3NC(=O)[C@H](CO)NC(=O)[C@H](C)NC(=O)CNC(=O)[C@H](CCCCN)NC(=O)CNC(=O)[C@H](CCCCN)NC(=O)[C@@H](N)CSSC[C@H](NC(=O)[C@H](CSSC[C@@H](C(N)=O)NC(=O)[C@H](CCCNC(=N)N)NC(=O)CNC1=O)NC(=O)[C@H](CC(=O)O)NC(=O)[C@H](Cc1ccc(O)cc1)NC(=O)[C@H](CO)NC(=O)[C@H]([C@@H](C)O)NC(=O)[C@H](CCCCN)NC(=O)[C@H](CCCNC(=N)N)NC3=O)C(=O)N[C@@H]([C@@H](C)O)C(=O)NCC(=O)N[C@@H](CO)C(=O)N2 [[R10K]CVIF] (HELM PEPTIDE1{C.K.G.K.G.A.S.C.R.K.T.S.Y.D.C.C.T.G.S.C.R.L.G.R.C.[am]}$PEPTIDE1,PEPTIDE1,1:R3-16:R3|PEPTIDE1,PEPTIDE1,8:R3-20:R3|PEPTIDE1,PEPTIDE1,15:R3-25:R3$$$V2.0)	–	–	–	–	–	–	relieved mechanical allodynia	highly significant reversal of incapacitance; also recorded: sustained	substantially decreased side effects compared to CVID	0.65±0.04	0.86±0.04	neither [R10K]CVIE or [R10K]CVIF had any effect	neither [R10K]CVIE or [R10K]CVIF had any effect	neither [R10K]CVIE or [R10K]CVIF had any effect	neither [R10K]CVIE or [R10K]CVIF had any effect	–	–
C[C@@H]1NC(=O)CNC(=O)[C@H](CCCCN)NC(=O)CNC(=O)[C@H](CCCCN)NC(=O)[C@@H](N)CSSC[C@@H]2NC(=O)[C@@H]3CSSC[C@@H](C(N)=O)NC(=O)[C@H](CCCNC(=N)N)NC(=O)CNC(=O)[C@H](CO)NC(=O)[C@H](CCCNC(=N)N)NC(=O)[C@H](CSSC[C@H](NC(=O)[C@H](CO)NC1=O)C(=O)N[C@@H](CCCNC(=N)N)C(=O)N[C@@H](CCCNC(=N)N)C(=O)N[C@@H]([C@@H](C)O)C(=O)N[C@@H](CO)C(=O)N[C@@H](Cc1ccc(O)cc1)C(=O)N[C@@H](CC(=O)O)C(=O)N3)NC(=O)[C@H](CO)NC(=O)CNC(=O)[C@H]([C@@H](C)O)NC2=O [CVIE, CKGKGASCRRTSYDCCTGSCRSGRC]	fully displaced	–	~50	–	78±7 % of control	67±5	completely relieves mechanical allodynia; also recorded: relieved mechanical allodynia	highly significant reversal of incapacitance; also recorded: subsided	substantially decreased side effects compared to CVID	–	–	–	–	–	–	10.43	10.70
C[C@@H](O)[C@@H]1NC(=O)[C@H](Cc2ccc(O)cc2)NC(=O)[C@@H]2C[C@@H](O)CN2C(=O)[C@H](CC(N)=O)NC(=O)[C@@H]2CSSC[C@@H]3NC(=O)[C@H](CO)NC(=O)[C@H](CO)NC(=O)CNC(=O)[C@@H]4C[C@@H](O)CN4C(=O)[C@H](CO)NC(=O)[C@H](CCCCN)NC(=O)[C@@H](N)CSSC[C@H](NC(=O)[C@H](CSSC[C@@H](C(=O)N[C@@H](Cc4ccc(O)cc4)C(N)=O)NC(=O)[C@H](CCCN=C(N)N)NC(=O)[C@H](CCCCN)NC1=O)NC(=O)[C@H](CC(N)=O)NC(=O)[C@H](Cc1ccc(O)cc1)NC(=O)[C@H](CO)NC(=O)[C@H]([C@@H](C)O)NC(=O)[C@@H]1C[C@@H](O)CN1C(=O)[C@H](CO)NC3=O)C(=O)N[C@@H](CCCN=C(N)N)C(=O)N[C@@H](CO)C(=O)N2 [GVIA, reference compound]	–	–	–	–	–	–	–	–	–	–	–	–	–	–	–	10.62	10.60
